Test results reported in patent US10519114B2, “Peptidomimetics and methods of using the same” (The Regents of the University of Michigan, priority 2016, dated 2019).

Assays:
[1] = target: T1, rat δ (C6-DOR) opioid receptor (Rattus norvegicus, UniProt P33533); assay: Stimulation of [35S]GTPγS binding, DOR; type: biochemical; details: for EC50 (nm) DOR / EC50: [35S]GTPγS binding, C6-DOR membranes, mean ± standard error; for % stimulation DOR / Emax: [35S]GTPγS maximal stimulation compared with 10 μM standard DPDPE
T1 construct: expressed in transfected cells
Protocol: (§1) In Vitro Pharmacology-Cell Lines and Membrane Preparations. All tissue culture reagents were purchased from Gibco Life Sciences (Grand Island, N.Y., U.S.). C6-rat glioma cells stably transfected with a rat μ (C6-MOR) or rat δ (C6-DOR) opioid receptor20 and Chinese hamster ovary (CHO) cells stably expressing a human K (CHO-KOR) opioid receptor21 were used for all in vitro assays. Cells were grown to confluence at 37° C. in 5% CO2 in Dulbecco's modified Eagle medium containing 10% fetal bovine serum and 5% penicillin/streptomycin. Membranes were prepared by washing confluent cells three times with ice cold phosphate buffered saline (0.9% NaCl, 0.61 mM Na2HPO4, 0.38 mM KH2PO4, pH 7.4). Cells were detached from the plates by incubation in warm harvesting buffer (20 mM HEPES, 150 mM NaCl, 0.68 mM EDTA, pH 7.4) and pelleted by centrifugation at 200 g for 3 min. The cell pellet was suspended in ice-cold 50 mM Tris-HCl buffer, pH 7.4, and homogenized with a Tissue Tearor (Biospec Products, Inc., Bartlesville, Okla., U.S.) for 20 s at setting 4. The homogenate was centrifuged at 20 000 g for 20 min at 4° C., and the pellet was rehomogenized in 50 mM Tris-HCl with a Tissue Tearor for 10 s at setting 2, followed by recentrifugation. The final pellet was resuspended in 50 mM Tris-HCl and frozen in aliquots at […]. Protein concentration was determined via Bradford assay using bovine serum albumin as the standard.
(§2) Stimulation of [^35S]GTPyS Binding. Agonist stimulation of [35S]guanosine 5′-O-[γ-thio]triphosphate ([^35S]GTPγS, 1250 Ci, 46.2 TBq/mmol) binding was measured as described previously Briefly, membranes (10-20 μg of protein/tube) were incubated 1 h at room temperature in GTPyS buffer (50 mM Tris-HCl, 100 mM NaCl, 5 mM MgCl2, pH 7.4) containing 0.1 nM [^35S]GTPγS, 30 μM guanosine diphosphate (GDP), and varying concentrations of test peptides. Peptide stimulation of [^35S]GTPyS was compared with 10 μM standard compounds [D-Ala^2,N-MePhe^4,Gly-ol]encephalin (DAMGO) at MOR, D-Pen^2,5-enkephalin (DPDPE) at DOR, or […] at KOR. The reaction was terminated by rapidly filtering through GF/C filters and washing 10 times with GTPyS buffer, and retained radioactivity was measured as described above. The results presented are the mean±standard error from at least three separate assays performed in duplicate; maximal stimulation was determined using nonlinear regression analysis with GraphPad Prism (GraphPad Software Inc., La Jolla, Calif.).

[2] = target: T1, rat δ (C6-DOR) opioid receptor; assay: Radioligand binding assay, [3H]diprenorphine displacement, DOR; details: displacement of 0.2 nM [3H]diprenorphine, C6-DOR membranes; mean ± standard error
Protocol: as §1
(§3) Radioligand Binding Assays. Radioactive compounds were purchased from Perkin-Elmer (Waltham, Mass., U.S.). Opioid ligand binding assays were performed using competitive displacement of 0.2 nM [3H]diprenorphine (250 μCi, 1.85 TBq/mmol) by the test compound from membrane preparations containing opioid receptors. The assay mixture, containing membrane suspension (20 μg protein/tube) in 50 mM Tris-HCl buffer (pH 7.4), [3H]diprenorphine, and various concentrations of test peptide, was incubated at room temperature for 1 h to allow binding to reach equilibrium. The samples were rapidly filtered through Whatman GF/C filters using a Brandel harvester (Brandel, Gaithersburg, Md., U.S.) and washed three times with 50 mM Tris-HCl buffer. The radioactivity retained on dried filters was determined by liquid scintillation counting after saturation with EcoLume liquid scintillation cocktail in a Wallac 1450 MicroBeta (Perkin-Elmer, Waltham, Mass., U.S.). Nonspecific binding was determined using 10 μM naloxone. Inhibitory constant (Ki) values were calculated using nonlinear regression analysis to fit a logistic equation to the competition data using GraphPad Prism, version 5.01, for Windows (GraphPad Software Inc., La Jolla, Calif.). The results presented are the mean±standard error from at least three separate assays performed in duplicate.

[3] = target: T2, rat μ (C6-MOR) opioid receptor (Rattus norvegicus, UniProt P33535); assay: Stimulation of [35S]GTPγS binding, MOR; type: biochemical
T2 construct: expressed in transfected cells
Protocol: as §1, §2

[4] = target: T2, rat μ (C6-MOR) opioid receptor; assay: Radioligand binding assay, [3H]diprenorphine displacement, MOR; details: displacement of 0.2 nM [3H]diprenorphine, C6-MOR membranes; mean ± standard error
Protocol: as §1, §3

[5] = target: T3, human κ (CHO-KOR) opioid receptor (Homo sapiens, UniProt P41145); assay: Radioligand binding assay, [3H]diprenorphine displacement, KOR; details: displacement of 0.2 nM [3H]diprenorphine, CHO-KOR membranes; mean ± standard error
T3 construct: expressed in transfected cells
Protocol: as §1, §3

[6] = [35S]GTPγS binding, C6-MOR membranes, mean ± standard error
[7] = [35S]GTPγS maximal stimulation compared with 10 μM standard DAMGO

T1 sequence (P33533 whole entry): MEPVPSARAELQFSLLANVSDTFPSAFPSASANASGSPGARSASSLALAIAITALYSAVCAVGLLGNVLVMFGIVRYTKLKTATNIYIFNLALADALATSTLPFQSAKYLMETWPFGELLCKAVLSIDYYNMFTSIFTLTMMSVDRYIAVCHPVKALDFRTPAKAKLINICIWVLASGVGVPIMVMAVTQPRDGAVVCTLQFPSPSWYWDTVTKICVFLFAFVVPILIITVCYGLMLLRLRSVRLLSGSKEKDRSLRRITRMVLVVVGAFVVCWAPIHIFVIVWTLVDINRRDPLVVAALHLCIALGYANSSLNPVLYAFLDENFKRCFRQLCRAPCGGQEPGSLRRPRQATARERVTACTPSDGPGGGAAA
T3 sequence (P41145 whole entry): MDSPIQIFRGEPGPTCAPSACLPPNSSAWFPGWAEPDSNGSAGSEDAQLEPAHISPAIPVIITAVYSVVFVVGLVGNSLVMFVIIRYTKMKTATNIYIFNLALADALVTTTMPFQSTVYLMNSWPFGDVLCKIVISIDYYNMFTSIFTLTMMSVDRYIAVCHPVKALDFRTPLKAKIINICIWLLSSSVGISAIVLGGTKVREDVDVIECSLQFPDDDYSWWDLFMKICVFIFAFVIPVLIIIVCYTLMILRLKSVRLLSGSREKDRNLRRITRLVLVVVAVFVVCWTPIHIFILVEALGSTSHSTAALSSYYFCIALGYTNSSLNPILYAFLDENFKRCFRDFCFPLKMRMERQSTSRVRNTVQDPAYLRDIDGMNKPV
T2 sequence (P33535 whole entry): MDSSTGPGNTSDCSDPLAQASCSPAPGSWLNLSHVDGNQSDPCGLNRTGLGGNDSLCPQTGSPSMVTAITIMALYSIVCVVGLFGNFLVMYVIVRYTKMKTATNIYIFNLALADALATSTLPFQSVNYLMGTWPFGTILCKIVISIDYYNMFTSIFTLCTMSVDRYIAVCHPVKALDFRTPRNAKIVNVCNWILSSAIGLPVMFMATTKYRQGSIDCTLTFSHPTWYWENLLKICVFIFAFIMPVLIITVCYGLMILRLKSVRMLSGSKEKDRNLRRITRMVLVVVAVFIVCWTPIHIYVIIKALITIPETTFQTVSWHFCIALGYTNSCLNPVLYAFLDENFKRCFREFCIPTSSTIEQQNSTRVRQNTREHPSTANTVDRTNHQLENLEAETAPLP

Cc1cc(O)cc(C)c1C[C@H](N)C(=O)N[C@@H]1CCNc2c(Cc3ccccc3)cccc21 [Compound 1039]
EC50 (nm) DOR [1]: dns
% stimulation DOR [1]: dns
Ki [2]: 246 nM
EC50 [3, 6]: 988 nM
Emax [3, 7]: 17.9%
Ki [4]: 57.7 nM
Ki [5]: 977 nM

Cc1cc(O)cc(C)c1C[C@H](N)C(=O)N[C@@H]1CCNc2ccc(CC3Cc4cccc(O)c4C3)cc21 (stereo partly drawn) [Compound 1036, (2S)-2-amino-N-((4R)-6-((4-hydroxy-2,3-dihydro-1H-inden-2-yl)methyl)-1,2,3,4-tetrahydroquinolin-4-yl)-3-(4-hydroxy-2,6-dimethylphenyl)propanamide]
EC50 (nm) DOR [1]: dns
% stimulation DOR [1]: dns
Ki [2]: 6.01 ± 1.31 nM
EC50 [3, 6]: 4.93 ± 1.15 nM
Emax [3, 7]: 69.1 ± 5.74%
Ki [4]: 0.18 ± 0.03 nM
Ki [5]: 20.6 ± 16.3 nM

CC(=O)N1CC[C@@H](NC(=O)[C@@H](N)Cc2c(C)cc(O)cc2C)c2cc(Cc3ccccc3)cc(Cc3ccccc3)c21 [Compound 1042]
EC50 [1]: 14.2 nM
Emax [1]: 30.1%
Ki [2]: 0.35 nM
EC50 [3, 6]: 14.7 nM
Emax [3, 7]: 75.1%
Ki [4]: 0.35 nM
Ki [5]: 12.1 nM

Cc1cc(O)cc(C)c1C[C@H](N)C(=O)N[C@@H]1CCNc2ccc(Oc3ccc(Cl)cc3)cc21 [Compound 1025]
EC50 [1]: 0.3 nM
Emax [1]: 1.18 ± 1.18%
Ki [2]: 12.1 ± 3.52 nM
EC50 [3, 6]: 9.7 ± 1.32 nM
Emax [3, 7]: 52.9 ± 4.46%
Ki [4]: 0.1 ± 0.03 nM
Ki [5]: 24.8 nM

Cc1cc(O)cc(C)c1C[C@H](N)C(=O)N[C@@H]1CCNc2ccc(CC3Cc4ccc(O)cc4C3)cc21 (stereo partly drawn) [Compound 1038]
EC50 [1]: 261 nM
Emax [1]: 10.5%
Ki [2]: 19.9 ± 4.12 nM
EC50 [3, 6]: 11.9 ± 4.96 nM
Emax [3, 7]: 16.2 ± 3.43%
Ki [4]: 0.73 nM
Ki [5]: 38.5 nM

COC(=O)N1CC[C@@H](NC(=O)[C@@H](N)Cc2c(C)cc(O)cc2C)c2cc(CC3Cc4ccccc4C3)ccc21 [Compound 1044]
EC50 (nm) DOR [1]: dns
% stimulation DOR [1]: dns
Ki [2]: 0.26 ± 0.05 nM
EC50 [3, 6]: 0.4 nM
Emax [3, 7]: 82.5%
Ki [4]: 0.09 ± 0.02 nM
Ki [5]: 10.4 nM

Cc1cc(O)cc(C)c1C[C@H](N)C(=O)N[C@@H]1CCNc2c(C(=O)Nc3ccccc3)cc(Cc3ccccc3)cc21 [Compound 1103]
EC50 (nm) DOR [1]: dns
% stimulation DOR [1]: dns
Ki [2]: 2.17 nM
EC50 [3, 6]: 27.3 nM
Emax [3, 7]: 62.7%
Ki [4]: 0.36 nM
Ki [5]: 29.4 nM

Cc1cc(O)cc(C)c1C[C@H](N)C(=O)N[C@@H]1CCNc2cc(Cc3ccccc3)ccc21 [Compound 1023]
EC50 (nm) DOR [1]: dns
% stimulation DOR [1]: dns
Ki [2]: 25.8 ± 1.61 nM
EC50 [3, 6]: 25.4 ± 22.2 nM
Emax [3, 7]: 18.1 ± 4.92%
Ki [4]: 0.78 ± 0.27 nM
Ki [5]: 91.6 nM

CCCC(=O)N1CC[C@@H](NC(=O)[C@@H](N)Cc2c(C)cc(O)cc2C)c2cc(CC3Cc4ccccc4C3)ccc21 [Compound 1034]
EC50 (nm) DOR [1]: dns
% stimulation DOR [1]: dns
Ki [2]: 0.38 ± 0.07 nM
EC50 [3, 6]: 4.08 ± 1.58 nM
Emax [3, 7]: 63.2 ± 12.6%
Ki [4]: 0.13 ± 0.02 nM
Ki [5]: 25.5 ± 0.85 nM

COc1cc2c(cc1Cc1ccccc1)[C@H](NC(=O)[C@@H](N)Cc1c(C)cc(O)cc1C)CCN2 [Compound 1045]
EC50 [1]: 135 nM
Emax [1]: 32.5%
Ki [2]: 2.84 ± 0.78 nM
EC50 [3, 6]: 8.03 ± 3.15 nM
Emax [3, 7]: 98.4 ± 2.54%
Ki [4]: 0.26 ± 0.09 nM
Ki [5]: 8.51 nM

Cc1cc(O)cc(C)c1C[C@H](N)C(=O)N[C@H]1CCNc2ccc(Oc3ccccc3)cc21 [Compound 1018]
EC50 [1]: 2000 nM
Emax [1]: 19.6%
Ki [2]: 277 ± 47.4 nM
EC50 [3, 6]: 1300 nM
Emax [3, 7]: 16.6 ± 16.6%
Ki [4]: 41.3 ± 6.34 nM
Ki [5]: 494 nM

Cc1cc(O)cc(C)c1C[C@H](N)C(=O)N[C@H]1CCNc2cc(Cc3ccccc3)ccc21 [Compound 1024]
EC50 (nm) DOR [1]: dns
% stimulation DOR [1]: dns
Ki [2]: 295 ± 108 nM
EC50 (nm) MOR [3, 6]: dns
% stimulation MOR [3, 7]: dns
Ki [4]: 21.1 ± 11.9 nM
Ki [5]: 1030 nM
